Common to all, as to assay type: in vivo
For one data set, the system named is ddY-type mice. The data set can be described thus: Analgesic efficacy test (1): acetic acid writhing test (nociceptive pain model animal). The conditions noted are these: Mus musculus, 25 min, writhing number, male ddY mice, acetic acid i.p. 25 min after administration, mean ± standard error, read-out: Percent Suppression (%); for inhibition in vivo at 10 mg/kg: oral single dose 10 mg/kg; for inhibition in vivo at 100 mg/kg: oral single dose 100 mg/kg. An excerpt:
A compound of the present invention was orally administered to mice, to carry out an analgesic efficacy test according to acetic acid writhing test (nociceptive pain model animal). As an experimental animal, 4-week old male ddY-type mice were previously bred, and thereafter 8 mice per one group were used in the experiment. A solution or suspension prepared by dissolving or suspending a compound of the present invention in a 0.5% (w/v) aqueous CMC-Na solution was orally administered as a test substance in a single dose. While, to a control group, a 0.5% (w/v) aqueous CMC-Na solution was administered in the same manner. After 25 minutes from administration, the mice were intraperitoneally administered with a 0.7% (v/v) acetic acid/physiological saline at the dose of 10 mL/kg. From 5 minutes thereafter, writhing number in a 10-minute period was counted, and a suppressive rate for each individual (mean±standard error) was calculated by the following formula: […]
In the test for significance difference, Baltlett's test was carried out in the comparison between multiple groups of the group administered with test substance with the control group. In the case of homoscedasticity, Dunnett's multiple comparison test of parametrics, and in the case of heteroscedasticity, Dunnett's multiple comparison test of non-parametrics were used. In addition, in the test of dose dependency, Jockheere-Terpstra's test was used. In all cases, significance difference was considered to be found at P<0.05.

A short description of data set [1]: Test of blood kinetics in the rats. Particulars: rat, plasma, 2 mg/kg, fasted Wistar male rats, oral single dose of mixed solution of five compounds, each compound 2 mg/5 mL/kg, n=5, LC-MS; for AUC(0-inf): read-out: AUC0-∞ (area under the curve for concentration in blood, time 0 to infinite hours); for Cmax: read-out: Cmax (maximum concentration in plasma). How it is done:
Ten milligrams of a compound of the present invention was properly converted to a sodium salt with the same amount of sodium hydroxide, where necessary, and each was dissolved in 5 mL of water. Five compounds each among these aqueous solutions of the compounds of the present inventions were mixed, to prepare a mixed solution containing 0.4 mg/mL each of each compound. Six-week old Wistar SPF male rats that were fasted were orally administered with the mixed solution in a single dose using a gavage tube (each compound 2 mg/5 mL/kg, n=5). At time points of 0.25, 0.5, 1, 2, 4, and 8 hours after the administration, about 150 μL of blood was collected using a heparin-added capillary tube from veins of rat tails. The capillary tubes were centrifuged to collect the plasma. The plasma sample was deprotenized and the supernatant was diluted to prepare each of measurement sample solutions. The concentration of the compound of the present invention in each of measurement sample solutions was quantified using LC-MS, and Cmax (maximum concentration in plasma) and AUC (area under the curve for concentration in blood, time 0 to infinite (∞) hours) of the compounds of the present invention were calculated.

In another data set the test system is Chung model rat. The data set can be described thus: Analgesic efficacy test (2): Chung model rat, neuropathic pain model (allodynia, von Frey filament). Particulars: Table 13, Wistar male rats, L5 spinal nerve ligation, mean ± standard error. On the procedure:
An analgesic efficacy test was conducted using a Chung model rat, a neuropathic pain model. Using Wistar male rats after passing 9-week old as an experimental animal, a model rat was prepared in accordance with the method of Kim and Chung (Pain, 50, 355-363, 1992). Specifically, left L5 spinal nerves of rats were exposed under anesthetization with pentobarbital (35 mg/kg, intraperitoneal administration), and firmly ligated with 5-0 silk yarn at L5 dorsal root ganglion peripheral side. The animals were placed in a transparent acrylic cage of which bottom was wire netted The measurement of allodynia was carried out using von Frey filament (manufactured by North Coast Medical Inc.) and a 50% reaction threshold was calculated according to an up-down method, in accordance with methods of Chaplan et al. (J. Neurosci. Method, 53, 55-63, 1994) and Lee et al. (J. Neurophysiol., 81, 2226-2233, 1999). The 50% reaction thresholds were measured twice before injury of the spinal nerve, and those animals of which thresholds were outside the standard were removed from the operation of spinal nerve injury. On or after 14 days from the spinal nerve injury, a 50% reaction threshold was measured, and those showing thresholds of 1 g or more and less than 4 g were used as experimental animal. The group was constituted by 7 rats per group so that an average of a 50% reaction threshold for each group would be nearly even.
A solution or suspension prepared by dissolving or suspending a compound of the present invention in a 0.5% (w/v) aqueous CMC-Na solution was orally administered as a test substance in a single dose while, a 0.5% (w/v) aqueous CMC-Na solution was administered in the same manner to the control group for nerve injury. After 30 minutes from the administration, the measurement of allodynia was carried out, and a 50% reaction threshold (mean±standard error) was calculated. In the test for significance difference, Baltlett's test was carried out in the comparison between multiple groups of the group administered with test substance with the control group for nerve injury. In the case of homoscedasticity, Dunnett's multiple comparison test of parametrics, and in the case of heteroscedasticity, Dunnett's multiple comparison test of non-parametrics were used. In all cases, significance difference was considered to be found at P<0.05.

For `N#CC(=Cc1ccccc1F)C(=O)N[C@@H](Cc1c[nH]c2ccccc12)C(=O)O` [Compound 22, N^α-[2-Cyano-3-(2-fluorophenyl)acryloyl]-L-tryptophan], the inhibition in vivo at 10 mg/kg in the data set on ddY-type mice amounted to 39.9 ± 8.6%. Further, in data set [1], the AUC(0-inf) is 11400 ng·h/mL and the Cmax was 4000 ng/mL. Moreover, the “50% Reaction Threshold (g), Group Administered with Test Substance, 30 Min. After Administration” value (“50% Reaction Threshold (g)” below) in the data set with Chung model rat (oral single dose 10 mg/kg) is 11.34 ± 1.52 g.

Consider `N#Cc1ccccc1C=CC(=O)N[C@@H](Cc1c[nH]c2ccccc12)C(=O)O` [Compound 9, N^α-[3-(2-Cyanophenyl)acryloyl]-L-tryptophan], for which the inhibition in vivo at 10 mg/kg in the data set on ddY-type mice turned out to be 41 ± 12.9%. For the same compound, in the data set on Chung model rat (oral single dose 1 mg/kg), the “50% Reaction Threshold (g)” value is listed as 6.28 ± 0.42 g.

Turning to `O=C(N[C@@H](Cc1c[nH]c2ccccc12)C(=O)O)c1cc2ccccc2oc1=O` [Compound 21, N^α-(Coumarin-3-carbonyl)-L-tryptophan], the inhibition in vivo at 10 mg/kg in the data set with ddY-type mice was 38.3 ± 6.5%. Further, in the data set with Chung model rat (oral single dose 1 mg/kg), the “50% Reaction Threshold (g)” value is on record as 3.93 ± 0.16 g.

With `C=CC(=O)N[C@@H](Cc1ccc(OC)cc1)C(=O)O` [Compound 38, N-Acryloyl-O^4-methyl-L-tyrosine], in the data set with ddY-type mice, the inhibition in vivo at 100 mg/kg was determined as 52 ± 8.2%. In data set [1], the AUC(0-inf) was 8500 ng·h/mL and the Cmax worked out at 2800 ng/mL. In addition, the “50% Reaction Threshold (g)” value with Chung model rat (oral single dose 1 mg/kg) is 5.44 ± 0.75 g.

As for `N#Cc1cccc(C=CC(=O)N[C@@H](Cc2c[nH]c3ccccc23)C(=O)O)c1` [Compound 17, N^α-[3-(3-Cyanophenyl)acryloyl]-L-tryptophan], the inhibition in vivo at 10 mg/kg in the data set on ddY-type mice was found to be 54.7 ± 6.8%. The “50% Reaction Threshold (g)” value in the data set with Chung model rat (oral single dose 10 mg/kg) came to 12.99 ± 1.53 g.

In the case of `O=C(C=Cc1ccc(Oc2ccccc2)cc1)N[C@@H](Cc1c[nH]c2ccccc12)C(=O)O` [Compound 18, N^α-[3-(4-Phenoxyphenyl)acryloyl]-L-tryptophan], the inhibition in vivo at 10 mg/kg in the data set on ddY-type mice worked out at 56.5 ± 4.2%. Further, the “50% Reaction Threshold (g)” value with Chung model rat (oral single dose 10 mg/kg) was 11.73 ± 1.60 g.

Take `N#Cc1ccc(C=CC(=O)N[C@@H](Cc2c[nH]c3ccccc23)C(=O)O)cc1` [Compound 19, N^α-[3-(4-Cyanophenyl)acryloyl]-L-tryptophan]: the inhibition in vivo at 100 mg/kg in the data set with ddY-type mice is 52.2 ± 6.1%. For the same compound, the “50% Reaction Threshold (g)” value with Chung model rat (oral single dose 1 mg/kg) was 5.16 ± 0.41 g.

For the compound `O=C(C=Cc1cccc(F)c1)N[C@@H](Cc1c[nH]c2ccccc12)C(=O)O` [Compound 4, N^α-[3-(3-Fluorophenyl)acryloyl]-L-tryptophan], in the data set with ddY-type mice, the inhibition in vivo at 100 mg/kg was 42.4 ± 8.3%. Further, in data set [1], the AUC(0-inf) came to 28700 ng·h/mL and the Cmax was found to be 4300 ng/mL. For the same compound, the “50% Reaction Threshold (g)” value in the data set with Chung model rat (oral single dose 10 mg/kg) is reported as 10.73 ± 1.59 g.

In the case of `O=C(C=Cc1c(F)cccc1F)N[C@@H](Cc1c[nH]c2ccccc12)C(=O)O` [Compound 13, N^α-[3-(2,6-Difluorophenyl)acryloyl]-L-tryptophan], the inhibition in vivo at 10 mg/kg in the data set on ddY-type mice came out at 52.9 ± 7.7%. For the same compound, in data set [1], the AUC(0-inf) stood at 46300 ng·h/mL and the Cmax turned out to be 7400 ng/mL. Besides, the “50% Reaction Threshold (g)” value with Chung model rat (oral single dose 10 mg/kg) stood at 9.94 ± 1.56 g.

With `NC(=O)[C@H](Cc1c[nH]c2ccccc12)NC(=O)C=Cc1ccccc1F` [Compound 23, N^α-[3-(2-Fluorophenyl)acryloyl]-L-tryptophanamide], the inhibition in vivo at 100 mg/kg with ddY-type mice came out at 48.2 ± 11.5%. In addition, the “50% Reaction Threshold (g)” value in the data set with Chung model rat (oral single dose 10 mg/kg) is reported as 9.37 ± 1.56 g.

For the compound `CSCC[C@H](NC(=O)C=Cc1ccccc1F)C(=O)O` [Compound 67, N-[3-(2-Fluorophenyl)acryloyl]-L-methionine], the inhibition in vivo at 10 mg/kg with ddY-type mice was found to be 43.5 ± 6.9%. Besides, the “50% Reaction Threshold (g)” value in the data set on Chung model rat (oral single dose 1 mg/kg) is listed as 4.94 ± 0.61 g.

For the compound `COc1ccc(C[C@H](NC(=O)C=Cc2ccccc2O)C(=O)O)cc1` [Compound 39, N-[3-(2-Hydroxyphenyl)acryloyl]-O^4-methyl-L-tyrosine], the “50% Reaction Threshold (g)” value in the data set on Chung model rat (oral single dose 10 mg/kg) came to 11.44 ± 1.70 g.

With `O=C(N[C@@H](Cc1c[nH]c2ccccc12)C(=O)O)c1cc2ccccc2o1` [Compound 20, N^α-(Benzofuran-2-carbonyl)-L-tryptophan], the inhibition in vivo at 100 mg/kg in the data set on ddY-type mice is 41.6 ± 6%. In addition, in data set [1], the AUC(0-inf) worked out at 10200 ng·h/mL and the Cmax stood at 3000 ng/mL. The “50% Reaction Threshold (g)” value with Chung model rat (oral single dose 1 mg/kg) came out at 6.13 ± 0.75 g.

As to `N=C(N)NCCC[C@H](NC(=O)C=Cc1ccccc1F)C(=O)O` [Compound 64, N^α-[3-(2-Fluorophenyl)acryloyl]-L-arginine], the inhibition in vivo at 10 mg/kg in the data set with ddY-type mice amounted to 50.6 ± 7.5%. In addition, in the data set with Chung model rat (oral single dose 1 mg/kg), the “50% Reaction Threshold (g)” value stood at 6.21 ± 1.04 g.

As for `O=C(C=Cc1ccccc1O)N[C@@H](Cc1c[nH]c2ccccc12)C(=O)O` [Compound 2, N^α-[3-(2-Hydroxyphenyl)acryloyl]-L-tryptophan], in the data set with ddY-type mice, the inhibition in vivo at 10 mg/kg was 41.8 ± 4.1%. In the data set with Chung model rat (oral single dose 10 mg/kg), the “50% Reaction Threshold (g)” value amounted to 11.64 ± 1.81 g.

For the compound `O=C(C=Cc1cc(C(F)(F)F)cc(C(F)(F)F)c1)N[C@@H](Cc1c[nH]c2ccccc12)C(=O)O` [Compound 16, N^α-{3-[3,5-Bis(trifluoromethyl)phenyl]acryloyl}-L-tryptophan], the inhibition in vivo at 100 mg/kg with ddY-type mice amounted to 69 ± 4.9%. Further, in the data set on Chung model rat (oral single dose 10 mg/kg), the “50% Reaction Threshold (g)” value is on record as 8.38 ± 1.07 g.

Turning to `Cn1cc(C[C@H](NC(=O)C=Cc2ccc(C#N)cc2)C(=O)O)c2ccccc21` [Compound 36, N^α-[3-(4-Cyanophenyl)acryloyl]-1-methyl-L-tryptophan], the inhibition in vivo at 10 mg/kg with ddY-type mice amounted to 49.7 ± 11.3%. In addition, in data set [1], the AUC(0-inf) is 11400 ng·h/mL and the Cmax was found to be 2300 ng/mL.

`O=C(C=Cc1ccccc1F)N[C@H](Cc1c[nH]c2ccccc12)C(=O)O` [Compound 24, N^α-[3-(2-Fluorophenyl)acryloyl]-D-tryptophan]: in the data set on ddY-type mice, the inhibition in vivo at 10 mg/kg worked out at 35.8 ± 9.3%. Also, in data set [1], the AUC(0-inf) turned out to be 148000 ng·h/mL and the Cmax worked out at 15000 ng/mL.

On to `Cn1cc(C[C@H](NC(=O)C=Cc2ccccc2F)C(=O)O)c2ccccc21` [Compound 27, N^α-[3-(2-Fluorophenyl)acryloyl]-1-methyl-L-tryptophan], for which the inhibition in vivo at 3 mg/kg in the data set on ddY-type mice (oral single dose 3 mg/kg) was 45 ± 10%. In data set [1], the AUC(0-inf) stood at 404000 ng·h/mL and the Cmax amounted to 53300 ng/mL.

For `O=C(C=Cc1ccccc1C(F)(F)F)N[C@@H](Cc1c[nH]c2ccccc12)C(=O)O` [Compound 10, N^α-[3-(2-Trifluoromethylphenyl)acryloyl]-L-tryptophan], in the data set with ddY-type mice, the inhibition in vivo at 10 mg/kg is 41.6 ± 9.6%. The “50% Reaction Threshold (g)” value in the data set on Chung model rat (oral single dose 10 mg/kg) is 6.73 ± 1.26 g.

Values taken from patent publication US9150510B2, “Amino acid derivative” (NIPPON ZOKI PHARMACEUTICAL CO., LTD., priority 2008, dated 2015).
